These results are taken from US10493060B2, “Spirocyclic compounds” (ZENO ROYALTIES & MILESTONES, LLC, priority 2015, dated 2019).

In experiment [1] the target is Activated ERK1 (Homo sapiens (Human), UniProt P27361). Nature of the experiment: Active ERK1 kinase assay (Mobility Shift Assay). The class given is biochemical. The method, then: (§1) Activated ERK1 and ERK2 activity was determined in a Mobility Shift Assay (MSA) format as follows: Compound and kinase solution were prepared with assay buffer (20 mM HEPES, 0.01% Triton X-100, 2 mM DTT, pH7.5) and mixed and incubated in for 30 mins at rt. ERK1 & ERK2 were then activated by the addition of Fl-Substrate, ATP and metal solution and incubated for 1 h at rt. After 1 h, the reaction was terminated by the addition of […] of Termination Buffer (QuickScout Screening Assist MSA; Carna Biosciences) to the well. The reaction mixture was applied to LabChip™ system (PerkinElmer), and the product and substrate peptide peaks were separated, analyzed and quantitated. The kinase reaction is evaluated by the product ratio calculated from peak heights of product (P) and substrate (S) peptides (P/(P+S)).
Sequence of Activated ERK1 (P27361 whole entry): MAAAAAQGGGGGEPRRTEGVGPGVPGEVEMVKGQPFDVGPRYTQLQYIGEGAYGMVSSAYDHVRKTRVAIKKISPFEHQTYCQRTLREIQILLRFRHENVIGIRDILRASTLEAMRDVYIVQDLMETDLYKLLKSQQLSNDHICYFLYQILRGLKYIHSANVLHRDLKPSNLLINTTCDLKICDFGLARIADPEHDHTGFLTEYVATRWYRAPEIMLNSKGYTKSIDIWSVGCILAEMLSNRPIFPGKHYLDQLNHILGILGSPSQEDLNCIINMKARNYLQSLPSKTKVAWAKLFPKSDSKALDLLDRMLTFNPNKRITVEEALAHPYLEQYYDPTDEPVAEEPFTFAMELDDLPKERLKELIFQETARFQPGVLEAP

Experiment [2] deals with Activated ERK2 (Homo sapiens (Human), UniProt P28482). As to the kind of experiment: Active ERK2 kinase assay (Mobility Shift Assay). The class given is biochemical. How it is done: as §1
Sequence of Activated ERK2 (P28482 whole entry): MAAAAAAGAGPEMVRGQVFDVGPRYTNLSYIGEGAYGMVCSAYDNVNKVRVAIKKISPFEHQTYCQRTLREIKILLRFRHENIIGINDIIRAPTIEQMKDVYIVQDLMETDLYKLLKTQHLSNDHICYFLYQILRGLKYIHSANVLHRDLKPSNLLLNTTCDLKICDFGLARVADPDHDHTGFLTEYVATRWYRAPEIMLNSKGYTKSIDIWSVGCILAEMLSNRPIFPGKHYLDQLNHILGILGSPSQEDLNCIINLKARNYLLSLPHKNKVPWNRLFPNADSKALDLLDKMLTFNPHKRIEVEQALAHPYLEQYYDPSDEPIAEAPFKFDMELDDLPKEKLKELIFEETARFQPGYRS
Experiment [3] concerns A375 (melanoma) cells. As to the kind of experiment: Proliferation assay (CellTiter-Glo), A375. Format: cell-based. The following applies: Homo sapiens, A-375, 72 h, 3 days. The method, then: (§2) A375 (melanoma), Colo-205 (colon cancer), Miapaca (pancreatic), HPAFII (pancreatic), sNF02.0 (neurofibromatosis type 1), sNF96.2 (neurofibromatosis type 1) and 8505 (Thyroid) cells were grown and maintained in RPMI-1640 medium containing 100 U/mL penicillin-streptomycin and 10% fetal bovine serum. Cells were in growth medium in 96-well opaque-walled clear bottom plates and incubated the in the CO2 incubator overnight before treatment. Cells were treated with compounds diluted in DMSO and a 10 point 3-fold serial dilutions were done. Plates were placed in 37° C., 5% CO2 for to incubate for 3 days. Before they were developed by adding 100 μL of CellTiter-Glo reagent (Promega) to the assay plate, plates were shaken briefly for 2 mins and allowed to incubate at rt for 10 mins. The bottom of the plates was pasted with white back seal and luminescence was recorded with Flexstation3 with setting of luminescence, integration time 500 ms.
On the technique in general: In ATP-based viability assays light output follows the ATP content of the culture.

Experiment [4] concerns Colo-205 (colon cancer) cells. Nature of the experiment: Proliferation assay (CellTiter-Glo), Colo-205. Format: cell-based. Conditions: Homo sapiens, COLO 205, 72 h, Colo205 cells, 3 days. How it is done: as §2
Experiment [5] concerns Mia Paca-2 (pancreatic) cells. As to the kind of experiment: Proliferation assay (CellTiter-Glo), Mia Paca-2. The class given is cell-based. The following applies: Homo sapiens, 72 h, Mia Paca-2 cells, 3 days. How it is done:
as §2

For experiment [6], the system named is HPAFII (pancreatic) cells. Nature of the experiment: Proliferation assay (CellTiter-Glo), HPAFII. Conditions: Homo sapiens, HPAF-II, 72 h, 3 days. The class given is cell-based. The method, then: as §2
In experiment [7] the test system is sNF02.2 (neurofibromatosis type 1) cells. Nature of the experiment: Proliferation assay (CellTiter-Glo), sNF02.2. The following applies: 72 h, sNF02.2 cells, 3 days. The class given is cell-based. How it is done:
as §2

In experiment [8] the test system is sNF96.2 (neurofibromatosis type 1) cells. As to the kind of experiment: Proliferation assay (CellTiter-Glo), sNF96.2. Format: cell-based. The following applies: 72 h, sNF96.2 cells, 3 days. How it is done: as §2
In experiment [9] the test system is 8505C (Thyroid) cells. Nature of the experiment: Proliferation assay (CellTiter-Glo), 8505C. The class given is cell-based. Conditions: Homo sapiens, 72 h, 8505C cells, 3 days. The method, then:
as §2

`Cc1nnc(-c2ccc(C3=CCN(C(=O)CN4CC[C@]5(CCN(c6ccc7[nH]nc(-c8ccc(OC(C)C)nc8)c7c6)C5=O)C4)CC3)cc2)o1` [Example 17, (S)-2-(3-(6-Isopropoxypyridin-3-yl)-1H-indazol-5-yl)-7-(2-(4-(4-(5-methyl-1,3,4-oxadiazol-2-yl)phenyl)-3,6-dihydropyridin-1(2H)-yl)-2-oxoethyl)-2,7-diazaspiro[4.4]nonan-1-one]: the half-maximal inhibitory concentration (IC50) was at most 0.05 µM in experiment [1], at most 0.05 µM in experiment [2], at most 0.5 µM in experiment [3] and at most 0.5 µM in experiment [4].

For `CC(C)Oc1ccc(-c2n[nH]c3ccc(N4CC[C@]5(CCN(CC(=O)N6CC=C(c7ccc(-c8ncccn8)cc7)CC6)C5)C4=O)cc23)cn1` [Example 22, (S)-2-(3-(6-Isopropoxypyridin-3-yl)-1H-indazol-5-yl)-7-(2-oxo-2-(4-(4-(pyrimidin-2-yl)phenyl)-3,6-dihydropyridin-1(2H)-yl)ethyl)-2,7-diazaspiro[4.4]nonan-1-one], the figures for the half-maximal inhibitory concentration (IC50) in experiment [1], in [2] and in experiment [3] were at most 0.05 µM, at most 0.05 µM and at most 0.5 µM, respectively.

Turning to `O=C(CN1CC[C@]2(CCN(c3ccc4[nH]nc(-c5ccnc(C(F)(F)F)c5)c4c3)C2=O)C1)N1CC=C(c2ccc(-c3ncc(F)cn3)cc2)CC1` [Example 28, (S)-7-(2-(4-(4-(5-Fluoropyrimidin-2-yl)phenyl)-3,6-dihydropyridin-1(2H)-yl)-2-oxoethyl)-2-(3-(2-(trifluoromethyl)pyridin-4-yl)-1H-indazol-5-yl)-2,7-diazaspiro[4.4]nonan-1-one], the IC50 in experiment [1] is at most 0.05 µM; in [2] it was at most 0.05 µM; in experiment [3], at most 0.5 µM.

`CC(C)Oc1ccc(-c2n[nH]c3ccc(N4CC[C@]5(CCN(CC(=O)N6CC=C(c7ccc(-c8cn(C)nn8)cc7)CC6)C5)C4=O)cc23)cn1` [Example 15, (S)-2-(3-(6-isopropoxypyridin-3-yl)-1H-indazol-5-yl)-7-(2-(4-(4-(1-methyl-1H-1,2,3-triazol-4-yl)phenyl)-3,6-dihydropyridin-1 (2H)-yl)-2-oxoethyl)-2,7-diazaspiro[4.4]nonan-1-one]: the concentration for half-maximal inhibition (IC50) is at most 0.05 µM in experiment [1], at most 0.05 µM in experiment [2], at most 0.5 µM in [3] and at most 0.5 µM in [4].

`Cn1cnc(-c2ccc(C3=CCN(C(=O)CN4CC[C@]5(CCN(c6ccc7[nH]nc(C8CCNC(C(F)(F)F)C8)c7c6)C5=O)C4)CC3)cc2)n1` (stereo partly drawn) [Example 12, (5S)-7-(2-(4-(4-(1-Methyl-1H-1,2,4-triazol-3-yl)phenyl)-3,6-dihydropyridin-1(2H)-yl)-2-oxoethyl)-2-(3-(2-(trifluoromethyl)piperidin-4-yl)-1H-indazol-5-yl)-2,7-diazaspiro[4.4]nonan-1-one]: the IC50 in experiment [1] is at most 0.05 µM; in experiment [2], at most 0.05 µM; in experiment [3], 0.5 to 1 µM; in experiment [4], at most 0.5 µM.

Turning to `Cn1nccc1Nc1nccc(-c2ccn([C@H](CO)c3ccc(Cl)c(F)c3)c(=O)c2)n1` [GDC-0994], the IC50 in experiment [3] was 0.5 to 1 µM; in [4], at most 0.5 µM.

Consider `Cn1cnc(-c2ccc(C3=CCN(C(=O)CN4CC[C@]5(CCN(c6ccc7[nH]nc(-c8ccnc(C(F)(F)F)c8)c7c6)C5=O)C4)CC3)cc2)n1` [Example 20, (S)-7-(2-(4-(4-(1-Methyl-1H-1,2,4-triazol-3-yl)phenyl)-3,6-dihydropyridin-1 (2H)-yl)-2-oxoethyl)-2-(3-(2-(trifluoromethyl)pyridin-4-yl)-1H-indazol-5-yl)-2,7-diazaspiro[4.4]nonan-1-one], for which the IC50 in experiment [1] is at most 0.05 µM; in experiment [2], at most 0.05 µM; in experiment [3], at most 0.5 µM; in [4] it was at most 0.5 µM.

As to `Cc1ccc(-c2n[nH]c3ccc(N4CCC5(CCN(CC(=O)N6CC=C(c7ccc(-c8ncn(C)n8)cc7)CC6)C5)C4=O)cc23)cn1` (stereo not drawn) [Example 7, 7-(2-(4-(4-(1-Methyl-1H-1,2,4-triazol-3-yl)phenyl)-3,6-dihydropyridin-1(2H)-yl)-2-oxoethyl)-2-(3-(6-methylpyridin-3-yl)-1H-indazol-5-yl)-2,7-diazaspiro[4.4]nonan-1-one], the IC50 in experiment [1] was at most 0.05 µM; in [2], at most 0.05 µM; in experiment [3] it was at most 0.5 µM; in experiment [4] it was at most 0.5 µM.

For `CC(C)Oc1ccc(-c2n[nH]c3ccc(N4CC[C@]5(CCN(CC(=O)N6CC=C(c7ccc(-c8ncc(F)cn8)cc7)CC6)C5)C4=O)cc23)cn1` [Example 23, (S)-7-(2-(4-(4-(5-Fluoropyrimidin-2-yl)phenyl)-3,6-dihydropyridin-1(2H)-yl)-2-oxoethyl)-2-(3-(6-isopropoxypyridin-3-yl)-1H-indazol-5-yl)-2,7-diazaspiro[4.4]nonan-1-one], the IC50 in experiment [1] is at most 0.05 µM; in experiment [2], at most 0.05 µM; in [3] it was 0.5 to 1 µM.

For the compound `CC(C)Oc1ccc(-c2n[nH]c3ccc(N4CC[C@]5(CCN(CC(=O)N6CCC(C78CC(c9ncn(C)n9)(C7)C8)CC6)C5)C4=O)cc23)cn1` [Example 24, (S)-2-(3-(6-Isopropoxypyridin-3-yl)-1H-indazol-5-yl)-7-(2-(4-(3-(1-methyl-1H-1,2,4-triazol-3-yl)bicyclo[1.1.1]pentan-1-yl)piperidin-1-yl)-2-oxoethyl)-2,7-diazaspiro[4.4]nonan-1-one], the results for the IC50 in [1], in experiment [2] and in experiment [3] were 0.05 to 0.25 µM, at most 0.05 µM and at least 1 µM, respectively.

Regarding `Cn1cnc(-c2ccc(C3=CCN(C(=O)CN4CC[C@]5(CCN(c6ccc7[nH]nc(-c8ccnc(C9(C(F)(F)F)CC9)c8)c7c6)C5=O)C4)CC3)cc2)n1` [Example 38, (S)-7-(2-(4-(4-(1-Methyl-1H-1,2,4-triazol-3-yl)phenyl)-3,6-dihydropyridin-1 (2H)-yl)-2-oxoethyl)-2-(3-(2-(1-(trifluoromethyl)cyclopropyl)pyridin-4-yl)-1H-indazol-5-yl)-2,7-diazaspiro[4.4]nonan-1-one], the IC50 in [2] is at most 0.05 µM; in experiment [3], at most 0.5 µM; in experiment [5], at most 0.5 µM; in experiment [6], at most 0.5 µM; in [7], at least 1 µM; in [8], 0.5 to 1 µM. In addition, in experiment [9], the half-maximal inhibitory concentration (IC50) was at least 1 µM.

With `CC(C)Oc1ccc(-c2n[nH]c3ccc(N4CC[C@]5(CCN(CC(=O)N6CCC(F)(c7ccc(-c8ncn(C)n8)cc7)CC6)C5)C4=O)cc23)cn1` [Example 27], the half-inhibitory concentration (IC50) in experiment [1] is at least 0.25 µM; in [2], at least 0.25 µM; in experiment [3], at least 1 µM.

On to `CC(C)Oc1ccc(-c2n[nH]c3ccc(N4CC[C@]5(CCN(CC(=O)N6CC=C(c7ccc(-c8ncccn8)cn7)CC6)C5)C4=O)cc23)cn1` [Example 25, (S)-2-(3-(6-Isopropoxypyridin-3-yl)-1H-indazol-5-yl)-7-(2-oxo-2-(5-(pyrimidin-2-yl)-3′,6′-dihydro-[2,4′-bipyridin]-1′(2′H)-yl)ethyl)-2,7-diazaspiro[4.4]nonan-1-one], for which the IC50 in experiment [1] is at least 0.25 µM; in experiment [2], 0.05 to 0.25 µM; in experiment [3], at least 1 µM.

Turning to `CCNc1nnc(-c2ccc(C3=CCN(C(=O)CN4CC[C@]5(CCN(c6ccc7[nH]nc(-c8ccc(OC(C)C)nc8)c7c6)C5=O)C4)CC3)cc2)o1` [Example 18, (S)-7-(2-(4-(4-(5-(Ethylamino)-1,3,4-oxadiazol-2-yl)phenyl)-3,6-dihydropyridin-1(2H)-yl)-2-oxoethyl)-2-(3-(6-isopropoxypyridin-3-yl)-1H-indazol-5-yl)-2,7-diazaspiro[4.4]nonan-1-one], the IC50 in experiment [1] is at most 0.05 µM; in experiment [2] it was at most 0.05 µM; in experiment [3], at most 0.5 µM; in experiment [4], at most 0.5 µM.

Take `Cn1cnc(-c2ccc(C3=CCN(C(=O)CN4CC[C@]5(CCN(c6ccc7[nH]nc(-c8ccncc8F)c7c6)C5=O)C4)CC3)cc2)n1` [Example 31, (S)-2-(3-(3-Fluoropyridin-4-yl)-1H-indazol-5-yl)-7-(2-(4-(4-(1-methyl-1H-1,2,4-triazol-3-yl)phenyl)-3,6-dihydropyridin-1(2H)-yl)-2-oxoethyl)-2,7-diazaspiro[4.4]nonan-1-one]: the figures for the 50% inhibitory concentration (IC50) in experiment [1], in experiment [2] and in experiment [3] were at most 0.05 µM, at most 0.05 µM and at most 0.5 µM, respectively.

By IC50 is commonly meant the concentration needed to halve the response being measured.
